What was measured:
Format in all cases: in vivo
[1] = system: Bristlegrass; assay: Greenhouse pot test, pre-emergence soil treatment, visual control effect 30 days after treatment, Gowing method
Description: In the present application, indoor combined action of the compound of herbicide active component A and B on weeds was measured to determine the combined effect of the composition on weeds, wherein the structure of the active component A was as follows:
The weed cultivation method was as follows: quantitative weed seeds abutilon and bristlegrass were respectively sown in a paper cup filled with nutrient soil with a diameter of 7 cm, and then cultivated in the greenhouse after covering the soil, suppressing and watering. The post-emergence stem and leaf treatment was performed when the grass weeds grew to 5-7 leaf stage, broad-leaved weeds grew to 6-8 leaf stage; the pre-emergence soil treatment was performed the second day after sowing, and the early post-emergence treatment was performed after sowing and before emergence; the experiment was repeated 3 times. After the treatment and drug solution naturally dried, the weeds were placed in the greenhouse to be managed according to conventional methods. According to the suppression or death of the weeds, a visual control effect investigation was conducted 30 days after the treatment. The application adopted the Gowing method to evaluate the combined effect of the proposed composition.
(§1) X—Weed control effect when the amount of herbicide component A is P;
(§2) Y—Weed control effect when the amount of herbicide component B is Q;
(§3) E0—Theoretical control effect when the amount of herbicide component A is […];
(§4) E—The measured control effect after the herbicide component A and the herbicide component B are mixed according to the above ratio.
(§5) When E−E0>10%, it is synergism; when E−E0<−10%, it is antagonism; when E−E0 value is between ±10%, it is addition.

[2] = system: Eclipta alba; assay: as above
[3] = system: Abutilon; assay: Example 15 indoor pot planting, death rate / herbicidal speed, weeds in 6-leaf stage
Description: (§6) The death rate of weeds after application of the herbicidal composition of the present application was measured and compared with the herbicidal rate when a single component was used. The test used the method of indoor pot planting. At the time of treatment, abutilon and barnyardgrass were in 6-leaf stage.

[4] = system: Echinochloacrusgalli; assay: as above
Description: as §6

[5] = system: goosegrass (collected from Zhengzhou, Henan); assay: Example 13 combined effect on weeds, Gowing method
Description: (§7) The weed cultivation and test material cultivation method was as follows: quantitative weed seeds abutilon and bristlegrass were respectively sown in a paper cup filled with nutrient soil with a diameter of 7 cm, and then cultivated in the greenhouse after covering the soil, suppressing and watering. The stem and leaf spray treatment was performed when the grass weeds grew to 5-7 leaf stage, and broad-leaved weeds grew to 6-8 leaf stage; the tests were repeated for 3 times. the treatment and drug solution naturally dried, the weeds were placed in the greenhouse to be managed according to conventional methods. According to the suppression or death of the weeds, a visual control effect investigation was conducted 30 days after the treatment.
(§8) The application adopted the Gowing method to evaluate the combined effect of the proposed composition.
as §1, §2, §3, §4, §5
(§9) The test targets were horseweed herb collected from Shenyang, Liaoning and goosegrass collected from Zhengzhou, Henan.

[6] = system: Horseweed herb (collected from Shenyang, Liaoning); assay: Example 13 combined effect on weeds, Gowing method
Description: as §7, §8, §1, §2, §3, §4, §5, §9

[7] = system: Abutilon; assay: Example 12 indoor pot experiment, stem and leaf spray, visual control effect 30 days after treatment, Gowing method
Description: (§10) The combined effect of the composition on the weeds was clarified by the indoor pot experiment.
as §7, §8, §1, §2, §3, §4, §5

[8] = system: Bristlegrass; assay: as above
Description: as §10, §7, §8, §1, §2, §3, §4, §5

[9] = Table 11, 7 days after treatment, dose 50 ga.i./hm^2
[10] = Table 11, 7 days after treatment, dose 100 ga.i./hm^2
[11] = Table 11, 7 days after treatment, dose 200 ga.i./hm^2
[12] = Table 11, 7 days after treatment, dose 400 ga.i./hm^2
[13] = Table 11, 15 days after treatment, dose 50 ga.i./hm^2
[14] = Table 11, 15 days after treatment, dose 100 ga.i./hm^2
[15] = Table 11, 15 days after treatment, dose 200 ga.i./hm^2
[16] = Table 11, 15 days after treatment, dose 400 ga.i./hm^2
[17] = Table 11, 30 days after treatment, dose 50 ga.i./hm^2
[18] = Table 11, 30 days after treatment, dose 100 ga.i./hm^2
[19] = Table 11, 30 days after treatment, dose 200 ga.i./hm^2
[20] = Table 11, 30 days after treatment, dose 400 ga.i./hm^2
[21] = Example 13 Table 2, dose 37.5 ga.i./hm^2
[22] = Example 13 Table 2, dose 75 ga.i./hm^2
[23] = Example 13 Table 2, dose 150 ga.i./hm^2
[24] = Example 13 Table 2, dose 300 ga.i./hm^2
[25] = Example 12 Table 1, dose 37.5 ga.i./hm^2
[26] = Example 12 Table 1, dose 75 ga.i./hm^2
[27] = Example 12 Table 1, dose 150 ga.i./hm^2
[28] = Example 12 Table 1, dose 300 ga.i./hm^2

CCOCN(C(=O)CCl)c1c(C)cccc1CC [Acetochlor]
Measured value E ([1]; Table 3, dose 75 ga.i./hm^2): 50%
Measured value E ([1]; Table 3, dose 150 ga.i./hm^2): 75%
Measured value E ([2]; Table 3, dose 75 ga.i./hm^2): 10%
Measured value E ([2]; Table 3, dose 150 ga.i./hm^2): 35%

CC(C)N.O=C(O)CNCP(=O)(O)O [Glyphosate isopropylamine]
Control effect (visual observation %) [3, 9]: 5.8%
Control effect (visual observation %) [3, 10]: 16.2%
Control effect (visual observation %) [3, 11]: 24.6%
Control effect (visual observation %) [3, 12]: 43.5%
Control effect (visual observation %) [3, 13]: 9.0%
Control effect (visual observation %) [3, 14]: 26.2%
Control effect (visual observation %) [3, 15]: 38.3%
Control effect (visual observation %) [3, 16]: 38.0%
Control effect (visual observation %) [3, 17]: 6.8%
Control effect (visual observation %) [3, 18]: 20.0%
Control effect (visual observation %) [3, 19]: 62.6%
Control effect (visual observation %) [3, 20]: 79.9%
Control effect (visual observation %) [4, 9]: 4.1%
Control effect (visual observation %) [4, 10]: 36.9%
Control effect (visual observation %) [4, 11]: 62.2%
Control effect (visual observation %) [4, 12]: 66.7%
Control effect (visual observation %) [4, 13]: 34.3%
Control effect (visual observation %) [4, 14]: 48.7%
Control effect (visual observation %) [4, 15]: 63.9%
Control effect (visual observation %) [4, 16]: 64.5%
Control effect (visual observation %) [4, 17]: 29.6%
Control effect (visual observation %) [4, 18]: 68.5%
Control effect (visual observation %) [4, 19]: 100%
Control effect (visual observation %) [4, 20]: 99.0%
Measured value E [5, 21]: 5%
Measured value E [5, 22]: 25%
Measured value E [5, 23]: 50%
Measured value E [5, 24]: 65%
Measured value E [6, 21]: 25%
Measured value E [6, 22]: 35%
Measured value E [6, 23]: 65%
Measured value E [6, 24]: 70%
Measured value E [7, 25]: 10%
Measured value E [7, 26]: 20%
Measured value E [7, 27]: 50%
Measured value E [7, 28]: 65%
Measured value E [8, 25]: 0%
Measured value E [8, 26]: 15%
Measured value E [8, 27]: 30%
Measured value E [8, 28]: 45%

From patent US20210112813A1, “HERBICIDAL COMPOSITION AND USE THEREOF” (NANTONG JIANGSHAN AGROCHEMICAL & CHEMICALS CO., LTD., priority 2019, published 2021)
